Entries after “also recorded” stand apart in the source; their conditions may differ.
Key:
[1] = tested on: SARS-CoV-2 (USA_WA1/2020); type: cell-based
SARS-CoV-2 [2] = conditions: single agent; cited from earlier work
COVID-19 = conditions: 392 participants, outpatient setting; cited from earlier work
[3] = healthy adults; cited from earlier work
SARS-CoV-2 [4] = conditions: cited from earlier work
Vero E6 cells = type: cell-based

OC(c1cc(C(F)(F)F)nc2c(C(F)(F)F)cccc12)C1CCCCN1 (centres unmarked) [Mefloquine]
antagonism against GS-441524 [1]: not
concentrations that significantly antagonized against remdesivir [1]: 0.625 to 1.25 µM
interaction with remdesivir at high concentrations [1]: synergize
interaction with remdesivir in CPE assay [1]: strong antagonistic effect; also recorded: antagonize

CCN(CC)Cc1cc(Nc2ccnc3cc(Cl)ccc23)ccc1O [Amodiaquine]
fold less potent in Calu-3 (TMPRSS2+) than in Vero E6 (SARS-CoV-2 [2]): > 10 fold
antagonism against GS-441524 [1]: not
concentrations that significantly antagonized against remdesivir [1]: 0.625 to 5 µM
interaction with nitazoxanide in CPE assay [1]: notable synergism
interaction with remdesivir at high concentrations [1]: synergize
interaction with remdesivir in CPE assay [1]: strong antagonistic effect; also recorded: antagonize

CCOC(=O)C1=C[C@@H](OC(CC)CC)[C@H](NC(C)=O)[C@@H](N)C1 [Oseltamivir phosphate]
antagonism with remdesivir [1]: no antagonism

CC(=O)Oc1ccccc1C(=O)Nc1ncc([N+](=O)[O-])s1 [Nitazoxanide]
efficacy with respect to 7-day viral load and symptom resolution (COVID-19): modest efficacy
tolerability [3]: well tolerated
IC50 (SARS-CoV-2 [4]): ~2000 nM
nitazoxanide concentrations with complete rescue of CPE [1]: 0.625 to 5 µM
cytotoxicity (Vero E6 cells): not cytotoxic
toxicity to Vero E6 cells (Vero E6 cells): ~20%

CCC(CC)COC(=O)[C@H](C)N[P@](=O)(OC[C@H]1O[C@@](C#N)(c2ccc3c(N)ncnn23)[C@H](O)[C@@H]1O)Oc1ccccc1 [Remdesivir]
CPE [1]: ≈ 0
interaction with nitazoxanide in CPE assay [1]: notable synergism

CCOC(=O)c1c(CSc2ccccc2)n(C)c2cc(Br)c(O)c(CN(C)C)c12 [Arbidol]
concentrations showing antagonism against remdesivir [1]: 123 to 370 nM
concentrations synergizing with remdesivir [1]: 3 to 10 µM
interaction with remdesivir in CPE assay [1]: antagonize

N#C[C@@]1(c2ccc3c(N)ncnn23)O[C@H](CO)[C@@H](O)[C@H]1O [GS-441524]
CPE [1]: ≈ 0

Reference: paper PMC7834738 (Molecular Therapy, 2020)
